Experimental data published in PMC10412636, “An analysis of interactions between three structurally diverse anthocyanidins, as well as their glucosides, and model biological membranes, albumin, and plasmid DNA” (Scientific Reports, 2023).

Columns and labels:
[1] = DPH fluorescence quenching, dissociation constant with MM liposome membrane; format: binding; details: 37 °C
Description: (§1) Two types of liposomes were used to study interactions with biological membranes: liposomes mimicking the composition of cancer cell membranes (mimic membrane liposome—MM) and liposomes formed from lipids extracted from human blood erythrocyte membranes (red blood cell membrane liposome—RBCM). […] Both lipids, dissolved in chloroform (MM liposome) and n-decane (RBCM liposome), were evaporated under a nitrogen atmosphere, and then dried in a desiccator for 90 min under a vacuum. The obtained dry lipid film was hydrated in phosphate buffer, pH 7.4, obtaining a concentration of 0.1 mg/ml, and then vortexed for one minute until a homogeneous, milky suspension was observed. The mixture was sonicated (Sonic, Milano, Italia) for 15 min keeping the sample in a bath of ice water, thus providing a cooling temperature of 0 °C. The suspension was then processed (extrusion) through polycarbonate filters with pore diameters of 100 and 200 nm using a Lipex extruder (Evonik). Liposomes, which had been prepared according to this procedure, was used in fluorimetric studies.
(§2) The phenomenon of quenching the fluorescence of the DPH probe by biologically active substances enabled us to evaluate the partition coefficient (Kd, dissociation constant) of anthocyanins with both MM and RBCM liposome membranes. For this purpose, changes in the fluorescence intensity of this probe were checked and the coefficient was calculated using the equation[48]:2 1/F0/F-1=Kd/[liposomes]×1/[anthocyanins]+1/liposomes where F0—fluorescence intensity in the absence of anthocyanins (control sample), F—fluorescence intensity in the presence of anthocyanins, [liposomes]—concentration of liposomes in mg/ml, [anthocyanins]—concentration of anthocyanins tested mg/ml.
(§3) Liposomes (the concentration of lipids in the sample was 0.1 mg/ml) were incubated for 30 min with the appropriate probe (dissolved in DMF, 1 µM concentration), and then the tested anthocyanins were added (final concentration of 1 to 30 µM). The control sample consisted of liposomes and a fluorescent probe. Fluorescence was measured on a fluorimeter (Cary Eclipse, Varian, San Diego, USA) at 37 °C. The excitation wavelengths λex and emission wavelengths λem respectively: MC540—λexc = 540 nm, λem = 590 nm; DPH—λexc = 360 nm, λem = 425 nm. nm; TMA-DPH—λexc = 340 nm, λem = 430 nm.

[2] = MC540 probe fluorescence intensity in MM liposomes; details: 37 °C, positive = decrease
Description: as §1
(§4) To investigate these properties three fluorescent probes were used: MC540, TMA-DPH, and DPH. MC540 localizes to the outer, hydrophilic part of the membrane, within the region of the glycerol skeleton[44]. Changes in the fluorescence intensity of this probe were formulated as the relative change in intensity to the control as a function of anthocyanins concentration. The TMA-DPH and DPH probes are supposed to locate nearer to the interface and in the hydrophobic region, respectively[45]. The measurement of changes in the anisotropy of the TMA-DPH and DPH probes allowed us to reflect the mobility of the fluorescent probes in the membrane, and therefore to determine the fluidity of the bilayer[46]. Fluorescence anisotropy was calculated using the formula[47]:1 A=I‖-GI⊥/I‖+2GI⊥ where I‖ and I⊥ are the intensity of fluorescence in parallel and perpendicular directions, to the plane of polarization of the excitation wave, respectively. G is an apparatus constant that depends on the emission wavelength.
as §3

[3] = DPH probe fluorescence anisotropy in RBCM liposomes; design: species or system human; details: RBCM, negative = increase in anisotropy
Description: as §1, §4, §3

[4] = DPH probe fluorescence anisotropy in MM liposomes; details: MM, negative = increase in anisotropy
Description: as §1, §4, §3

[5] = TMA-DPH probe fluorescence anisotropy in MM liposomes; details: negative = increase in anisotropy
Description: as §1, §4, §3

[6] = TMA-DPH probe fluorescence anisotropy in RBCM liposomes; design: species or system human; details: negative = increase in anisotropy
Description: Two types of liposomes were used to study interactions with biological membranes: liposomes mimicking the composition of cancer cell membranes (mimic membrane liposome—MM) and liposomes formed from lipids extracted from human blood erythrocyte membranes (red blood cell membrane liposome—RBCM). […] The RBCM liposome was according to the methodology described previously[42] with minor modifications[43]. Both lipids, dissolved in chloroform (MM liposome) and n-decane (RBCM liposome), were evaporated under a nitrogen atmosphere, and then dried in a desiccator for 90 min under a vacuum. The obtained dry lipid film was hydrated in phosphate buffer, pH 7.4, obtaining a concentration of 0.1 mg/ml, and then vortexed for one minute until a homogeneous, milky suspension was observed. The mixture was sonicated (Sonic, Milano, Italia) for 15 min keeping the sample in a bath of ice water, thus providing a cooling temperature of 0 °C. The suspension was then processed (extrusion) through polycarbonate filters with pore diameters of 100 and 200 nm using a Lipex extruder (Evonik). Liposomes, which had been prepared according to this procedure, was used in fluorimetric studies.
To investigate these properties three fluorescent probes were used: MC540, TMA-DPH, and DPH. MC540 localizes to the outer, hydrophilic part of the membrane, within the region of the glycerol skeleton[44]. […] The TMA-DPH and DPH probes are supposed to locate nearer to the interface and in the hydrophobic region, respectively[45]. The measurement of changes in the anisotropy of the TMA-DPH and DPH probes allowed us to reflect the mobility of the fluorescent probes in the membrane, and therefore to determine the fluidity of the bilayer[46]. Fluorescence anisotropy was calculated using the formula[47]:1 A=I‖-GI⊥/I‖+2GI⊥ where I‖ and I⊥ are the intensity of fluorescence in parallel and perpendicular directions, to the plane of polarization of the excitation wave, respectively. G is an apparatus constant that depends on the emission wavelength.
as §3

[7] = tested on: pHbApr-1-Neo plasmid DNA; experiment: TCSPC-FCS of PicoGreen-labelled plasmid DNA with anthocyanins; format: binding
Description: To evaluate the biological interaction with DNA molecules the anthocyanins were initially dissolved in ETOH (1 mM). […] Mixing of such solutions with the aqueous DNA solutions used in the studies never exceeded 1% concentration ETOH (v/v) in the final solution. The DNA plasmid was labelled by PicoGreen (CPicoGreen/CDNAbp = 0.02)[52]. The pHbApr-1-Neo plasmid (10 kbp and contour length 3.4 µm) was a generous gift from the laboratory of Prof. Maciej Ugorski (Department of Biochemistry and Molecular Biology, Wrocław University of Environmental and Life Sciences Wroclaw, Poland). PicoGreen-labelled DNA samples mixed with the appropriate amount of anthocyanins were left overnight and then measured. The increasing concentration of anthocyanins in the tested samples was expressed as the ratio of the molar concentration of anthocyanins per molar concentration of DNA base pairs in a given sample (comp/bp). The 100 µl samples were measured in Ibidi 8-well chambers. Each point on the graph is a single sample (average of 10 measurements). All measurements were performed at room temperature (25 °C). Time-correlated single-photon counting fluorescence correlation spectroscopy (TCSPC-FCS) was used to study the interaction of plasmid DNA at the single molecule level with all tested anthocyanins. […] Low power of 1uW (at the back aperture of the objective) was chosen to minimize photobleaching and saturation. In the detection plane, a pinhole (50um in diameter) was used and the signal was collected by a single photon avalanche diode (SPAD, Microphoton Devices, Bolzano, Italy). Photon arrival times were stored using fast electronics (Picoharp 300, PicoQuant) in time-tagged time-resolved recording mode. Two independent times were assigned to each detected photon: (1) a time after the beginning of the measurement and (2) a time after the previous laser pulse. The FCS data analysis was done using home-built routines (DevC++, Bloodshed Software and OriginPro70, OriginLab Corporation). The TCSPC data analysis was performed using SymPhoTime software (PicoQuant). Further details of the data evaluation are given elsewhere.

[8] = MC540 probe fluorescence intensity in RBCM liposomes; design: species or system human; details: 37 °C, positive = decrease
Description: as §1, §4, §3

[9] = DPH fluorescence quenching, dissociation constant with RBCM liposome membrane; format: binding, human; details: 37 °C
Description: as §1, §2, §3

[10] = biological target: human serum albumin (HSA) (Homo sapiens, UniProt P02768); experiment: Quenching of natural fluorescence of human serum albumin; format: binding; details: HSA […] 10^–5 M, 37 °C
human serum albumin (HSA), sequence (P02768 25-609): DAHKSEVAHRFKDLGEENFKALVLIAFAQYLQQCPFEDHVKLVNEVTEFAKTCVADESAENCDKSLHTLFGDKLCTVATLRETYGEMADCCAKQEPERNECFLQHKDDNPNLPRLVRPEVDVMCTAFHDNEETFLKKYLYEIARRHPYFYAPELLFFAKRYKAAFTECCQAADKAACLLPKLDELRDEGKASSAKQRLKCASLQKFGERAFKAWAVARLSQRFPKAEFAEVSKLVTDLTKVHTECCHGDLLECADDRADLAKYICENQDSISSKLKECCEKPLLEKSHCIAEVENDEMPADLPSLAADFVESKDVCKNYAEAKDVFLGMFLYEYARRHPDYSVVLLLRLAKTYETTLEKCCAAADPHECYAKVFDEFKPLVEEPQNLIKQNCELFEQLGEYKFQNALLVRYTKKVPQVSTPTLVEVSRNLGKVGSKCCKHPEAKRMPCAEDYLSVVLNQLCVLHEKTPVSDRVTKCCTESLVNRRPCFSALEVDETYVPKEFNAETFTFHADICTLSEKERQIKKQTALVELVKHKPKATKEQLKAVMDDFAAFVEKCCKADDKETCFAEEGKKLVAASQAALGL
Description: The phenomenon of quenching the natural fluorescence of human serum albumin (HSA) was used to investigate the potential interaction of anthocyanins with this protein. […] Anthocyanins with concentrations ranging from 1 to 30 µM were added to HSA dissolved in phosphate buffer (1.5 × 10^–5 M) and then incubated at 37 °C for 20 min. Emission spectra were performed on a fluorimeter Cary Eclipse (Varian, San Diego, USA) at 37 °C. HSA fluorescence was excited with a wavelength of λ = 280 nm, the emission was measured in the range from 286 to 460 nm, and the fluorescence intensity was read at 345 nm where the emission maximum of HSA was located.
The Stern–Volmer equation was used to thoroughly describe the quenching mechanism of natural fluorescence and to determine the bindings parameters of HSA: anthocyanin complexes:4 F0/F=1+Kqτ0Q=1+KSV[Q] where F0—fluorescence intensity in the absence of anthocyanins (control sample), F—fluorescence intensity in the presence of anthocyanins, KSV—Stern–Volmer quenching constant (KSV = Kq·τ0), [Q]—concentration of quencher (tested compound), Kq—bimolecular quenching constant, τ0—a lifetime of the fluorophore in the absence of quencher the fluorescence lifetime of a biopolymer is calculated as 5 × 10^–9 s[51].
The apparent binding constants (Kb) and the number of binding sites (n) can be calculated using the following equation:5 log(F0-F/F]=logKb+nlog[Q]
F0 and F are the fluorescence intensities before and after the addition of the quencher. From the linear plot of log (F0 − F)/F versus log [Q], the value of Kb was obtained from the intercept.

Kd [1]: 11.5 ± 2.07 µM
Kd [9]: 9.89 ± 1.96 µM
Stern Volmer constant KSV [10]: 22.46 ± 1.00 × 10^3 M^−1
number of binding sites n [10]: 1.03 ± 0.05
SMILES: Oc1cc(O)c2cc(O)c(-c3cc(O)c(O)c(O)c3)[o+]c2c1 [Dp, Delphinidin]
Changes in MC540 fluorescence intensity relative to the control ([2]; 1 µM): 13.66±1.64%
Changes in MC540 fluorescence intensity relative to the control ([2]; 5 µM): 26.57±1.99%
Changes in MC540 fluorescence intensity relative to the control ([2]; 10 µM): 41.91±1.76%
Changes in MC540 fluorescence intensity relative to the control ([2]; 20 µM): 63.50±4.28%
Changes in MC540 fluorescence intensity relative to the control ([2]; 30 µM): 73.23±5.31%
Changes in MC540 fluorescence intensity relative to the control ([2]; 30 µM, listed as delphinidin): 73.2 ± 5.3%
Changes in DPH anisotropy relative to the control ([3]; 1 µM): -9.06±0.14%
Changes in DPH anisotropy relative to the control ([3]; 5 µM): -9.32±0.41%
Changes in DPH anisotropy relative to the control ([3]; 10 µM): -6.55±0.22%
Changes in DPH anisotropy relative to the control ([3]; 20 µM): -8.84±0.31%
Changes in DPH anisotropy relative to the control ([3]; 30 µM): -7.33±0.24%
Changes in DPH anisotropy relative to the control ([4]; 1 µM): -8.87±0.24%
Changes in DPH anisotropy relative to the control ([4]; 5 µM): -12.33±0.13%
Changes in DPH anisotropy relative to the control ([4]; 10 µM): -14.45±0.24%
Changes in DPH anisotropy relative to the control ([4]; 20 µM): -16.33±0.38%
Changes in DPH anisotropy relative to the control ([4]; 30 µM): -12.45±0.57%
Changes in TMA-DPH anisotropy relative to the control ([5]; 1 µM): -5.27±0.20%
Changes in TMA-DPH anisotropy relative to the control ([5]; 5 µM): -5.27±0.16%
Changes in TMA-DPH anisotropy relative to the control ([5]; 10 µM): -2.04±0.17%
Changes in TMA-DPH anisotropy relative to the control ([5]; 20 µM): 0.86±0.02%
Changes in TMA-DPH anisotropy relative to the control ([5]; 30 µM): -7.43±0.30%
Changes in TMA-DPH anisotropy relative to the control ([6]; 1 µM): -5.61±0.35%
Changes in TMA-DPH anisotropy relative to the control ([6]; 5 µM): -2.41±0.11%
Changes in TMA-DPH anisotropy relative to the control ([6]; 10 µM): 1.85±0.06%
Changes in TMA-DPH anisotropy relative to the control ([6]; 20 µM): 1.35±0.15%
Changes in TMA-DPH anisotropy relative to the control ([6]; 30 µM): 4.73±0.21%
change in Particle Number (PN) ([7]; comp/bp 1.0–5.0): no changes
diffusion time (tD), plateau ([7]; comp/bp 1.0–5.0): 25 to 28 ms
lifetime (LT) ([7]; comp/bp 1.0–5.0, decrease from 3.5 ns): about 2.3 ns
decrease in the diffusion time (tD) ([7]; comp/bp = 0.8, from about 70 ms): tenfold
lifetime (LT) ([7]; comp/bp = 0.8, plasmid alone 4.25 ns): about 3.5 ns
Particle Number (PN) ([7]; comp/bp = 0.8, plasmid alone 5): about 1.2
diffusion time (tD) ([7]; comp/bp = 0.8, plasmid alone about 70 ms): 7.0 ms
changes in plasmid tD, lower compared to those obtained for Pt 3-glc ([7]; comp/bp up to 0.8): about 2 fold
decrease in tD compared to the initial plasmid diffusion time ([7]; plateau, comp/bp 1.0–5.0): twofold
Changes in MC540 fluorescence intensity relative to the control ([8]; 1 µM): 19.22±0.56%
Changes in MC540 fluorescence intensity relative to the control ([8]; 5 µM): 30.39±0.90%
Changes in MC540 fluorescence intensity relative to the control ([8]; 10 µM): 42.45±2.77%
Changes in MC540 fluorescence intensity relative to the control ([8]; 20 µM): 58.15±3.73%
Changes in MC540 fluorescence intensity relative to the control ([8]; 30 µM): 64.08±6.62%
Changes in MC540 fluorescence intensity relative to the control ([8]; 30 µM, listed as delphinidin): 64.1 ± 6.6%
